Measured values published in patent publication US20260217683A1, “PYRIDAZINONE HETEROCYCLIC COMPOUND MYOSIN II INHIBITOR AND USE THEREOF” (Xizang Haisco Pharmaceutical Co., Ltd., priority 2023, published 2026).
Where two headings read alike, the source gives them in different places.

How the values were obtained:
[1] = system: rabbit skeletal muscle myosin; experiment: Inhibition of hydrolysis of ATP by rabbit skeletal muscle myosin; format: biochemical
Summary of the method: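 Actin-activated ATPase: F-actin plus rabbit skeletal myosin II with compound in Tris-HCl pH 7.5/KCl/EGTA/MgCl2, started with ATP (3 mM working stock) and run 60 min at 37 °C. Released Pi measured by CytoPhos absorbance at 650 nm against a phosphate standard curve; IC50 fitted from inhibition relative to uninhibited myosin.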

cardiac myosin SII = target: T1, cardiac myosin SII (Bos taurus, UniProt Q9BE39); experiment: Inhibition of hydrolysis of ATP by cardiac myosin SII; format: biochemical; settings: 100 μM compound
T1 construct: purchased Cytoskeleton #MYO3-A
Summary of the method: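 Bovine cardiac myosin with preformed F-actin in 15 mM Tris-HCl pH 7.5, 10 mM KCl, 2 mM MgCl2, 0.1 mM EGTA; compounds at 100 μM final, ATP from 3 mM working solution, 2 h at 37 °C. Released Pi measured colorimetrically at 650 nm against a Pi standard curve; % inhibition vs. DMSO control.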

smooth muscle myosin S1 = target: T2, smooth muscle myosin S1 (Gallus gallus, UniProt P10587); experiment: Inhibition of hydrolysis of ATP by smooth muscle myosin S1 fragments; format: biochemical; settings: 100 μM compound
T2 construct: purchased Cytoskeleton #CS-MYS05
Summary of the method: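 Smooth muscle myosin S1 fragment (0.7 mg/mL in PM12 buffer with 1 mM DTT) was mixed with compound and F-actin polymer prepared from cardiac actin, then 5 mM ATP working solution started the reaction at 37° C. for 20 min. Released Pi was measured with CytoPhos reagent at 650 nm against a standard curve, and inhibition was calculated relative to positive control wells.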

[2] = Pharmacokinetic experiment in mice; format: in vivo; settings: male, C57, po; mouse plasma, i.g. (10 mg/kg)
Method: (§1) 1. Experimental animals: Male C57 mice, 22-25 g, 6 mice/compound. Purchased from Chengdu Ddossy Experimental Animals Co., Ltd.
(§2) 2. Experimental design: On the day of the experiment, 12 C57 mice were randomly grouped according to their body weight. The animals were fasted with water available for 12 to 14 h one day before the administration and were fed 4 h after the administration.
Before and after the administration, 0.06 mL of blood was taken from the orbit of the animals under isoflurane anesthesia and placed in an EDTAK2 centrifuge tube. The blood was centrifuged at 5000 rpm and 4° C. for 10 min to collect the plasma. The blood collection time points for the intravenous group and intragastric administration group were: 0 m, 5 m, 15 min, 30 min, 1 h, 2 h, 4 h, 7 h and 24 h. Before analysis and detection, all samples were stored at −80° C., and a quantitative analysis of samples was performed using LC-MS/MS.

[3] = target: T3, hERG potassium ion channel (Homo sapiens, UniProt Q12809); experiment: Effect on hERG potassium ion channel (manual patch-clamp, CHO cells); format: cell-based; settings: CHO cells stably expressing hERG, whole cell patch-clamp; read-out: IC50 of the inhibitory effect on hERG potassium channel current
T3 construct: expressed in transfected cells
Description: 1. Experimental platform: electrophysiological manual patch-clamp system
2. Cell line: Chinese hamster ovary (CH—O) cell lines stably expressing hERG potassium ion channel
3. Experimental method: in CHO (Chinese Hamster Ovary) cells stably expressing hERG potassium channel, whole cell patch-clamp technique was used to record hERG potassium channel current at room temperature. The glass microelectrode was made of a glass electrode blank (BF150-86-10, Sutter) by a puller. The tip resistance after filling the liquid in the electrode was about 2-5 MQ. The glass microelectrode can be connected to the patch-clamp amplifier by inserting the glass microelectrode into an amplifier probe. The clamping voltage and data recording were controlled and recorded by the pClamp 10 software through a computer. The sampling frequency was 10 kHz, and the filtering frequency was 2 kHz. After the whole cell records were obtained, the cells were clamped at −80 mV, and the step voltage that induced the hERG potassium current (IhERG) was depolarized from −80 mV to +20 mV for 2 s, then repolarized to −50 mV, and returned to −80 mV after 1 s. This voltage stimulation was given every 10 s, and the administration process was started after the hERG potassium current was confirmed to be stable (at least 1 minute). The compound was administered for at least 1 minute at each test concentration, and at least 2 cells (n≥2) were tested at each concentration.
4. Data processing: Data analysis processing was carried out by using pClamp 10, GraphPad Prism 5 and Excel software. The inhibition degree of hERG potassium current (peak value of hERG tail current induced at −50 mV) at different compound concentrations was calculated by the following formula:
[formula] • where Inhibition % represents the percentage of inhibition of hERG potassium current by the compound, and I and Io represent the amplitude of hERG potassium current after and before the administration, respectively.
Compound IC50 was calculated using GraphPad Prism 5 software by fitting according to the following equation: […]
Among the equation, X represents the Log value of the tested concentration of the test sample, Y represents the inhibition percentage at the corresponding concentration, and Bottom and Top represent the minimum and maximum inhibition percentage, respectively.

CYP1A2 = target: T4, CYP1A2 (Homo sapiens, UniProt P05177); experiment: CYP450 enzyme inhibition, human liver microsomes, CYP1A2; format: in vitro ADME
T4 construct: incubated with human liver microsomes and test compounds of different concentrations; from tissue; host or cells: human liver microsomes
T4 sequence (P05177 1-516): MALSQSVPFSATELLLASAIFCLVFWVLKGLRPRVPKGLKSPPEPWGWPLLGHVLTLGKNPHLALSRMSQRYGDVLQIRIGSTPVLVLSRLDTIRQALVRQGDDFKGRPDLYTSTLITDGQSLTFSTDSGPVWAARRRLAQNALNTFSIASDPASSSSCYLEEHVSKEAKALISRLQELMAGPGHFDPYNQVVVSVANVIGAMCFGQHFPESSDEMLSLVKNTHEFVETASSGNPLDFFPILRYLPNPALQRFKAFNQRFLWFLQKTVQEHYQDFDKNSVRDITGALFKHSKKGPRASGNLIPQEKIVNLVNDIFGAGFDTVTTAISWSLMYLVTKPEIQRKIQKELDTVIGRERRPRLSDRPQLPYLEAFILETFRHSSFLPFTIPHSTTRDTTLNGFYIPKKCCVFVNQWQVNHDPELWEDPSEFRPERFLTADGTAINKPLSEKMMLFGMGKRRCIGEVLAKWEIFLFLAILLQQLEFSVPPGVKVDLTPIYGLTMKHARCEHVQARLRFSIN
Method: (§3) The purpose of this study was to evaluate the effect of the test compound on the activity of five isoenzymes (CYP1A2, CYP2C9, CYP2C19, CYP2D6 and CYP3A4) of human liver microsomal cytochrome P450 (CYP) by using an in vitro testing system. The specific probe substrates of CYP450 isoenzymes were incubated with human liver microsomes and test compounds of different concentrations, and reduced nicotinamide adenine dinucleotide phosphate (NADPH) was added to initiate the reaction. After the completion of the reaction, the sample was treated and liquid chromatography-tandem mass spectrometry (LC-MS/MS) was used to quantitatively detect metabolites produced by specific substrates, changes in CYP enzyme activity were determined, and IC50 value was calculated to evaluate the inhibitory potential of the test compound on each CYP enzyme subtype.

CYP2C9 = target: T5, CYP2C9 (Homo sapiens, UniProt P11712); experiment: CYP450 enzyme inhibition, human liver microsomes, CYP2C9; format: in vitro ADME
T5 construct: incubated with human liver microsomes and test compounds of different concentrations; from tissue; host or cells: human liver microsomes
Method: as §3

CYP2C19 = target: T6, CYP2C19 (Homo sapiens, UniProt P33261); experiment: CYP450 enzyme inhibition, human liver microsomes, CYP2C19; format: in vitro ADME
T6 construct: incubated with human liver microsomes and test compounds of different concentrations; from tissue; host or cells: human liver microsomes
Method: as §3

CYP2D6 = target: T7, CYP2D6 (Homo sapiens, UniProt P10635); experiment: CYP450 enzyme inhibition, human liver microsomes, CYP2D6; format: in vitro ADME
T7 construct: incubated with human liver microsomes and test compounds of different concentrations; from tissue; host or cells: human liver microsomes
Method: as §3

CYP3A4 = target: T8, CYP3A4 (Homo sapiens, UniProt P08684); experiment: CYP450 enzyme inhibition, human liver microsomes, CYP3A4; format: in vitro ADME
T8 construct: incubated with human liver microsomes and test compounds of different concentrations; from tissue; host or cells: human liver microsomes
Method: as §3

[4] = Pharmacokinetic experiment in mouse muscle tissue (tibialis anterior / plasma); format: in vivo, C57 mice; settings: male, C57, tibialis anterior muscle / plasma, oral, intragastric 10 mg/kg, read-out: Ratio = Tibialis anterior Conc./Plasma Conc.
Method: as §1
as §2, with “experiment,” for “experiment, 12”, “administration. Administration was performed as per Table 10.1.” for “administration.”

B10-Dmd-KO (Mdx) mice = experiment: PK/PD detection of mouse model with Dmd (Mdx) gene mutation, plasma CK; format: in vivo; settings: 10 mpk single administration, oral
Description: Experimental objective: Bl0-Dmd-KO (Mdx) mice are DMD function-deficient mice caused by frameshift mutations in the Dmd gene. […] This study has investigated the effects on CK and TNNI2 in the plasma of Mdx mice upon administration of compounds.
Experimental animal: B10-Dmd-KO (C57BL/10ScSnJGpt-Dmdem3Cd4/Gpt), male, 5-7 weeks old, weight 28-30 g, supplier. Gempharmatech Co., Ltd.;
• 1) Running training (D-5): Mdx mice underwent running training in batches. The training parameters were set as three time periods, i.e., the initial speed of 4 m/min for 2 min, then 8 m/min for 8 min, and finally 12 m/min for 30 min, a total of 40 min; • 2) Gripping strength test (D-2): each round was measured three times, and three rounds were performed; • 3) Grouping (DO): the animals were anesthetized by inhalation of isoflurane (concentration: 5%, gas flow rate: 1 L/min), and then a capillary tube was used to collect blood (about 150 μL) via orbital venous sinus into a 0.6 mL centrifuge tube containing EDTA anticoagulant, the plasma wad separated, and the CK value was detected, which was used as the basic value for grouping; • 4) Administration, grasping, and blood collection (D1): The compounds were dissolved in the vehicle 5% DMA+5% HS-15+90% Saline, then orally administered to the mice, and then the grip strength test was conducted (three tests per round for three rounds). […] A capillary tube was used to collect blood (>300 μL) via orbital venous sinus into a 0.6 mL centrifuge tube containing EDTA anticoagulant, and then the animals were euthanized to collect the tibialis anterior muscle (left leg), soleus muscle (both legs) and cardiac muscle, which were weighed and recorded, placed in a homogenization tube and quickly frozen in liquid nitrogen, then stored at −80° C.
Sample processing: After the whole blood anticoagulated with EDTA was centrifuged at 3000 rpm and 4° C. for 10 min, the […] was collected and subpackaged. The separated […] was subjected to a biochemical analyzer (Fully automatic biochemical analyzer Roche C311) to detect the CK value and TNN12 value (Mouse TNNI2 Elisa Kit, ABBEXA, E2207370Y); The […] concentration of the compound and the drug concentration in tibialis anterior muscle, soleus muscle and cardiac muscle were measured by LC/MS instrument.

[5] = inhibition of hydrolysis of ATP, class symbols, read-out: Rabbit skeletal muscle myosin (IC50)
[6] = read-out: IC50 for inhibition of hydrolysis of ATP by rabbit skeletal muscle myosin

T3 sequence (Q12809 whole entry): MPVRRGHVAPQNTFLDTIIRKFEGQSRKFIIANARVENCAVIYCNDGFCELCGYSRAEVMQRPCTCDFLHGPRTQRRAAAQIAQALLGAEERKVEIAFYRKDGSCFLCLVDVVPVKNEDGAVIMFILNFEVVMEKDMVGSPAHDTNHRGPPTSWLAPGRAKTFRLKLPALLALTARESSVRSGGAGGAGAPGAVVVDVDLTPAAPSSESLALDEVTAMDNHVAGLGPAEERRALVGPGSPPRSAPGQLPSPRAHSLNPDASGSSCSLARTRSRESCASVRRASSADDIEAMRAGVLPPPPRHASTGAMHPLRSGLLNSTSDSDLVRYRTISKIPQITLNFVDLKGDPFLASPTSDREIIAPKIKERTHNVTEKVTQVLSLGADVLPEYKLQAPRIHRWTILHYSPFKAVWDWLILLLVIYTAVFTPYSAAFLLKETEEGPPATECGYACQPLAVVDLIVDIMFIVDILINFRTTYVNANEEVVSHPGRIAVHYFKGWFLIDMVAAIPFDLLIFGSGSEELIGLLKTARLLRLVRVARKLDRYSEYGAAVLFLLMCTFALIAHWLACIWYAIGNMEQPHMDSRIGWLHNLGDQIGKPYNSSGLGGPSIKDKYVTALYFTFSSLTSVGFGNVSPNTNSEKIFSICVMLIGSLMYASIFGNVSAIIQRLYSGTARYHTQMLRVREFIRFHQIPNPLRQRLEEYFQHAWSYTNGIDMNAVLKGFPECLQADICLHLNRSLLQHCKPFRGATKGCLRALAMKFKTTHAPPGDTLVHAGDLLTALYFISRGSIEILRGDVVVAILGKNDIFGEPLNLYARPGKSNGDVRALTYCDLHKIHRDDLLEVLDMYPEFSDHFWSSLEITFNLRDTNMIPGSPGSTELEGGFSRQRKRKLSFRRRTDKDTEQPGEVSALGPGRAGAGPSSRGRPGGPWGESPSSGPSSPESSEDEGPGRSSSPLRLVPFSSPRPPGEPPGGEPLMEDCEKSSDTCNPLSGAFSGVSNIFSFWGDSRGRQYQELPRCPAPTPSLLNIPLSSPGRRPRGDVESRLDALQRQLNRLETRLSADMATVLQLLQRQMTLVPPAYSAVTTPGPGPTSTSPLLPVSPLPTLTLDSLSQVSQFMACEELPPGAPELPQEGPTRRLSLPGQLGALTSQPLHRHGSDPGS
T2 sequence (P10587 84-789 limits assumed): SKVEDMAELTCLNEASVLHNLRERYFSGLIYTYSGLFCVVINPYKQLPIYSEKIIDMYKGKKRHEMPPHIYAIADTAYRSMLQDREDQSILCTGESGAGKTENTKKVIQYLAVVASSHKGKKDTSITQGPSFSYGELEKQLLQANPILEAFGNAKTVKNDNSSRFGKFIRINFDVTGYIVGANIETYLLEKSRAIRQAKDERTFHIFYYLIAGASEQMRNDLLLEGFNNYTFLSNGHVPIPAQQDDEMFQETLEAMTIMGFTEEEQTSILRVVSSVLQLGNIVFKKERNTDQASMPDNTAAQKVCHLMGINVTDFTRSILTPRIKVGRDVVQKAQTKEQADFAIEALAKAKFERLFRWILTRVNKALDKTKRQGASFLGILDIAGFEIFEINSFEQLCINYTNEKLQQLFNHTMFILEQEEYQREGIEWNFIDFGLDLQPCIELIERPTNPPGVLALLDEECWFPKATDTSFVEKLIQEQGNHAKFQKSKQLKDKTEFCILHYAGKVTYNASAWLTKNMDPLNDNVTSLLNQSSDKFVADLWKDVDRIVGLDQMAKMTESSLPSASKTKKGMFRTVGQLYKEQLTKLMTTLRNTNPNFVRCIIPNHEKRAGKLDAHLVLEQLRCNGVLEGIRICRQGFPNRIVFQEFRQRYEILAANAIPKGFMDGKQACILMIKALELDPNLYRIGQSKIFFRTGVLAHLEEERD
T2 sequence (P02607 whole entry partner, the tested form may be a part): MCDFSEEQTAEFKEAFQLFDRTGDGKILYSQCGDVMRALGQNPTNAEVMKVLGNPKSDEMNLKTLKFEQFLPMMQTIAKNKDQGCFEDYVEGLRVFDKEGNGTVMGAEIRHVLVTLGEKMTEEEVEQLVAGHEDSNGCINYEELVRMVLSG
T1 sequence (Q9BE39 whole entry): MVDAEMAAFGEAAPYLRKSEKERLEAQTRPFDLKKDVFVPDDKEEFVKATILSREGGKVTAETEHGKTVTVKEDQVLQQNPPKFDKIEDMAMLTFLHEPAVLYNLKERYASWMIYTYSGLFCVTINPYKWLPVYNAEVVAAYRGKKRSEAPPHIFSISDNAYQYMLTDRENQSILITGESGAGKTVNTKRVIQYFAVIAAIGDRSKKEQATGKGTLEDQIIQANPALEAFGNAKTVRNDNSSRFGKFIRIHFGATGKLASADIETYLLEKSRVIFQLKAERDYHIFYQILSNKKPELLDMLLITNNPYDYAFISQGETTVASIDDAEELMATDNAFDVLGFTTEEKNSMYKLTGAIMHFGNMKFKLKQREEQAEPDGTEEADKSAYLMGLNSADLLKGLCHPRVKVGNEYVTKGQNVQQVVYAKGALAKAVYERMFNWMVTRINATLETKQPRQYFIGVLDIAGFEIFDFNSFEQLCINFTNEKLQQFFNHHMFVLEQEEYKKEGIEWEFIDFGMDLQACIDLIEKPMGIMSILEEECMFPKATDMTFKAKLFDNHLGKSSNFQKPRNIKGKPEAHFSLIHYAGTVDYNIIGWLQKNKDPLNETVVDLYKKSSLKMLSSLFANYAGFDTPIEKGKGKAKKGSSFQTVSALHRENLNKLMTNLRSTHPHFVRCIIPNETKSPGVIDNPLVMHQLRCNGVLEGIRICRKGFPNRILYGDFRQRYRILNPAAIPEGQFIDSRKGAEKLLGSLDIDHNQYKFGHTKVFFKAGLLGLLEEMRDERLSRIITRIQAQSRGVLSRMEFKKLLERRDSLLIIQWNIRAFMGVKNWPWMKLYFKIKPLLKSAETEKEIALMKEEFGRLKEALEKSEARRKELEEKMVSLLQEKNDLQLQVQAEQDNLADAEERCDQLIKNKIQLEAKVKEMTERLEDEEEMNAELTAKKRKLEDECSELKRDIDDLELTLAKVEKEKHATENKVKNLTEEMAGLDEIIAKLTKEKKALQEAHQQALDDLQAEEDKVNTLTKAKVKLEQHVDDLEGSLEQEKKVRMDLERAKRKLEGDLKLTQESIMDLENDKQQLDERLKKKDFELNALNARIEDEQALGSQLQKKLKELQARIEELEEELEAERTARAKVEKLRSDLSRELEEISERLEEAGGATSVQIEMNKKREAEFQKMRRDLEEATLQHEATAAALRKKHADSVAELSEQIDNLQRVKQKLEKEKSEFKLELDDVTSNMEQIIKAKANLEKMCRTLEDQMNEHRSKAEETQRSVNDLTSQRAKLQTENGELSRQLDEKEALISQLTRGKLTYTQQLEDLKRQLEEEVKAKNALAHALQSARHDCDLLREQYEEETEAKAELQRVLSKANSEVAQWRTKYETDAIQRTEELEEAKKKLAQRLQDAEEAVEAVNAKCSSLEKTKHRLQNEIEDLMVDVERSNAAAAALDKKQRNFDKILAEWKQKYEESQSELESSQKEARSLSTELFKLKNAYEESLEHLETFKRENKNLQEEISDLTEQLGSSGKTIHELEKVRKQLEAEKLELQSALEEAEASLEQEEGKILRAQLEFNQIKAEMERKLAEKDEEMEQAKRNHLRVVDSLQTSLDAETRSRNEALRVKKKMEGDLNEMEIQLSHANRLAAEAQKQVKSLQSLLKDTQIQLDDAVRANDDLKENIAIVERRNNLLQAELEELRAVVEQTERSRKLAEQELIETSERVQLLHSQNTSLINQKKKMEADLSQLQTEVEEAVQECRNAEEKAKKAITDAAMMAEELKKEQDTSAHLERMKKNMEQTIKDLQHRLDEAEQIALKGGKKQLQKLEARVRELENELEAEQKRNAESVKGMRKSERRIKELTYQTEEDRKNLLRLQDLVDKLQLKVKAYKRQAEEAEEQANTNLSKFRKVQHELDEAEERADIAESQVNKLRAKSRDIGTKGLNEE
T1 sequence (P85100 whole entry partner): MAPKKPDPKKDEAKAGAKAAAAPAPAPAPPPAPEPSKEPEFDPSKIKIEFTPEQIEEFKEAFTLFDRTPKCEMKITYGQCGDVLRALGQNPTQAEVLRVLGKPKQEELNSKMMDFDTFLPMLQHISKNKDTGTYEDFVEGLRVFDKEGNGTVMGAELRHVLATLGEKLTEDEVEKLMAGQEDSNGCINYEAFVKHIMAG
T1 sequence (Q3SZE5 whole entry partner): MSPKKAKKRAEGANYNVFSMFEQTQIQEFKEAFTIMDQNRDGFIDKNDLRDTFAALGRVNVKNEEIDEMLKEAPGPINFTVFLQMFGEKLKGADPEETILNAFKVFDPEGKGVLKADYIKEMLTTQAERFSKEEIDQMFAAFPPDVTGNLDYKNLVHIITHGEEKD
T8 sequence (P08684 whole entry): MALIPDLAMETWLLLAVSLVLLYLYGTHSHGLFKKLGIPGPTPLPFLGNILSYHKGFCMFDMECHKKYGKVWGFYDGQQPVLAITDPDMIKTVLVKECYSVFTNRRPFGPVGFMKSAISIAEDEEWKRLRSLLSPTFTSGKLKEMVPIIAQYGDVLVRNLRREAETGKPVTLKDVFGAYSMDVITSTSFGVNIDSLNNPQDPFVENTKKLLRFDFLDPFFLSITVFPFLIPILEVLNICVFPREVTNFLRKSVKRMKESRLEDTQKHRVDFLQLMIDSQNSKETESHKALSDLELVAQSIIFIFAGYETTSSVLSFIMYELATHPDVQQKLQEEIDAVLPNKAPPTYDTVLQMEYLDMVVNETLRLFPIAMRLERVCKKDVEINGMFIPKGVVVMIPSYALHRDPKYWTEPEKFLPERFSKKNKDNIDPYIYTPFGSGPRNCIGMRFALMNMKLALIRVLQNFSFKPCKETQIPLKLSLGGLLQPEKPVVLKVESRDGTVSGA

IC50 [1, 5] [µM] | inhibition at 100 µM (cardiac myosin SII) [%] | inhibition at 100 µM (smooth muscle myosin S1) [%] | AUC(0-t) [2] [µg·h/mL] | Cmax [2] [µg/mL] | IC50 [1, 6] [µM] | half-life [2] [h] | Kp at 6 h [4] | Kp at 24 h [4] | SMILES | IC50 [3] [µM] | other results
< 2.5 | 8 | 3 | 8.17 | 1.38 |  |  |  |  | O=c1ccc(-c2cnc(OCC(F)(F)F)nc2)nn1Cc1ccc2c(c1)C1CC1C2 (single isomer, unassigned) [Compound 160] |  | 
< 2.5 | 13 | 16 | 6.18 | 0.688 | 0.8 |  |  |  | O=c1ccc(-c2cnc(OCC(F)(F)F)nc2)nn1Cc1ccc2c(c1)CC1CC21 (single isomer, unassigned) [Compound 162] |  | 
 |  |  | 2.21 | 0.267 |  | 18.9 |  |  | O=c1ccc(-c2cnc(OCC(F)(F)F)nc2)nn1Cc1ccc2[nH]ncc2c1 [Comparative Example 1, reference compound] | 2.5 | IC50 (CYP1A2): > 30 µM; IC50 (CYP2C9): 4.44 µM; IC50 (CYP2C19): 1.85 µM; IC50 (CYP2D6): 8.81 µM; IC50 (CYP3A4): > 30 µM
< 2.5 |  |  |  |  | 0.34 |  | 175 | 316 | O=c1ccc(-c2cnc(OCC(F)(F)F)nc2)nn1Cc1ccc2c(c1)CC2 [Compound 56] |  | Inhibition rate of CK values (sampled 24 h after (last) dose) (B10-Dmd-KO (Mdx) mice): 88.4%
< 2.5 | 17 |  |  |  | 0.2 |  |  |  | O=c1ccc(-c2cnc(C3CC3)nc2)nn1Cc1ccc2c(c1)CC2 [Compound 92] | > 40 | 
< 2.5 | 4 | -12 |  |  |  |  |  |  | O=C1CCc2ccc(Cn3nc(-c4cnc(Oc5cncc(F)c5)nc4)ccc3=O)cc21 [Compound 124] | > 40 | 
2.5 to 20 | -10 | -2 | 8.32 | 1.09 |  |  |  |  | Cn1cc(Oc2ncc(-c3ccc(=O)n(Cc4ccc5c(c4)CCC5)n3)cn2)cn1 [Compound 128] |  | 
< 2.5 | 22 | -2 |  |  | 0.2 | 41.9 | 146 | 178 | O=C1CCc2ccc(Cn3nc(-c4cnc(OCC5CC5)nc4)ccc3=O)cc21 [Compound 129] |  | 
< 2.5 |  | 8 |  |  | 0.3 | 66.8 | 133 | 165 | O=C1CCc2ccc(Cn3nc(-c4cnc(OCC5(F)CC5)nc4)ccc3=O)cc21 [Compound 135] |  | 
< 2.5 | 10 | -3 |  |  |  |  |  |  | O=C1CCc2ccc(Cn3nc(-c4cnc(C5CC5)nc4)ccc3=O)cc21 [Compound 157] | > 40 | 
